{
  "source": "patent US20020137023A1",
  "about": "“Methods and compositions for targeting compounds to muscle” (Auburn University, priority 1997, published 2002)",
  "assay_in_all_cases": "in vivo phage display selection, frequency of selected clone",
  "key": {"cardiac muscle [1]": {"system": "cardiac muscle", "design": "species or system dog", "details": "for FREQUENCY (of selected phage clone among clones sequenced): 3 in vivo rounds in cardiac muscle, dog", "description": "(§1) In round one of selection, the phage library is injected intravenously and multiple tissues may be recovered. In subsequent rounds, the phage purified from specific tissues recovered in round one is injected intravenously, and thus, only that tissue is recovered. In rounds 2-4, separate animals are needed for each tissue being examined. After the last round, the phages are plated on a lawn of bacteria and a number of phage plaques are isolated and the DNA sequenced. Of these a certain percentage will represent the dominant selected clone. FIG. 2 provides a scheme for selection of tissue specific phage.\n(§2) In the Table, “Four rounds of selection . . . ,” means that in round 1, the phage library was injected intravenously, and a specific tissue was recovered. In round 1, multiple tissues are recovered from one animal (skeletal muscle, cardiac muscle, etc.). In any subsequent round, the phage purified from a specific tissue is injected intravenously, and only that tissue is recovered. Thus, in rounds 2-4, separate animals are needed for each tissue being examined. After the last round, the phage are plated on a lawn of bacteria and a number of phage plaques are isolated and the DNA sequenced. This is represented in the Table by “number of phage clones sequenced.” Of these, a certain percentage will represent the dominant selected clone.\n(§3) The experiments disclosed herein, represent the first in vivo selection in any species other than mouse. Generally, phage was left to circulate for one hour."}, "skeletal muscle": {"system": "skeletal muscle", "description": "as §1, §2, §3"}, "cardiac muscle [2]": {"system": "cardiac muscle", "details": "mouse", "description": "as §1, §2, §3"}, "neuro muscular tissue": {"system": "neuro muscular tissue", "details": "4 in vivo rounds in neural muscular tissue; mouse", "description": "as §1, §2, §3"}, "murine muscle": {"system": "murine muscle", "design": "species or system mouse", "details": "four rounds in vivo", "description": "as §1\nIn the Table, “Four rounds of selection . . . ,” means that in round 1, the phage library was injected intravenously, and a specific tissue was recovered. In round 1, multiple tissues are recovered from one animal (skeletal muscle, cardiac muscle, etc.). In any subsequent round, the phage purified from a specific tissue is injected intravenously, and only that tissue is recovered. Thus, in rounds 2-4, separate animals are needed for each tissue being examined. After the last round, the phage are plated on a lawn of bacteria and a number of phage plaques are isolated and the DNA sequenced. This is represented in the Table by “number of phage clones sequenced.” Of these, a certain percentage will represent the dominant selected clone. […]"}, "[3]": {"details": "4 in vivo rounds in cardiac muscle"}, "[4]": {"details": "4 in vivo rounds in skeletal muscle, mouse"}},
  "data": [
    {"substance": "SGTLFAN (Phage display library peptides) [peptide selected by 3 in vivo phage rounds in dog cardiac muscle]", "values": [
      {"measurement": "FREQUENCY (of selected phage clone among clones sequenced)", "setting": "cardiac muscle [1]", "result": 28, "unit": "%"}
    ]},
    {"substance": "ASSLNIA (Phage display library peptides) [Ala-Ser-Ser-Leu-Asn-Ile-Ala]", "values": [
      {"measurement": "FREQUENCY (of selected phage clone among clones sequenced)", "setting": "skeletal muscle; 3 in vitro rounds on C2C12 myotubes followed by 2 in vivo rounds on skeletal muscle, mouse", "result": 40, "unit": "%"}
    ]},
    {"substance": "QWHGPLH (Phage display library peptides) [Gln-Trp-His-Gly-Pro-Leu-His]", "values": [
      {"measurement": "FREQUENCY (of selected phage clone among clones sequenced)", "setting": "cardiac muscle [2]; 3 in vivo rounds in cardiac muscle", "result": 20, "unit": "%"}
    ]},
    {"substance": "HVHTLPT (Phage display library peptides) [His-Val-His-Thr-Leu-Pro-Thr]", "values": [
      {"measurement": "FREQUENCY (of selected phage clone among clones sequenced)", "setting": "cardiac muscle [2]; [3]", "result": 11, "unit": "%"}
    ]},
    {"substance": "APVHRPL (Phage display library peptides) [peptide selected via two rounds in vivo, in canine cardiac muscle]", "values": [
      {"measurement": "fraction in which the selected clone was found", "setting": "cardiac muscle [1]; two rounds in vivo, in canine cardiac muscle", "result": "found in the washed tissue fraction"}
    ]},
    {"substance": "GETRAPL (Phage display library peptides) [Gly-Glu-Thr-Arg-Ala-Pro-Leu]", "values": [
      {"measurement": "FREQUENCY (of selected phage clone among clones sequenced)", "setting": "neuro muscular tissue", "result": 12, "unit": "%"},
      {"measurement": "FREQUENCY (of selected phage clone among clones sequenced)", "setting": "skeletal muscle; [4]", "result": 37, "unit": "%"}
    ]},
    {"substance": "MHHTRFY (Phage display library peptides) [Met-His-His-Thr-Arg-Phe-Tyr]", "values": [
      {"measurement": "FREQUENCY (of selected phage clone among clones sequenced)", "setting": "cardiac muscle [2]; [3]", "result": 8, "unit": "%"}
    ]},
    {"substance": "CGHHPVYAC (Phage display library peptides) [Cys-Gly-His-His-Pro-Val-Tyr-Ala-Cys]", "values": [
      {"measurement": "FREQUENCY (of selected phage clone among clones sequenced)", "setting": "skeletal muscle; tissue skeletal muscle, dog", "result": 100, "unit": "%"},
      {"measurement": "FREQUENCY (of selected phage clone among clones sequenced)", "setting": "cardiac muscle [1]", "result": 20, "unit": "%"}
    ]},
    {"substance": "WDANGKT (Phage display library peptides) [Trp-Asp-Ala-Asn-Gly-Lys-Thr]", "values": [
      {"measurement": "FREQUENCY (of selected phage clone among clones sequenced)", "setting": "skeletal muscle; 2 in vitro on C2C12 myotubes followed by 2 in vivo rounds on skeletal muscle, mouse + dog", "result": 10, "unit": "%"},
      {"measurement": "FREQUENCY (of selected phage clone among clones sequenced)", "setting": "skeletal muscle; [4]", "result": 19, "unit": "%"}
    ]},
    {"substance": "HAIYPRH (Phage display library peptides) [peptide selected via four rounds in vivo, in murine muscle]", "values": [
      {"measurement": "frequency of selected clone", "setting": "murine muscle", "result": 4, "unit": "%"}
    ]},
    {"substance": "KAPLTPV (Phage display library peptides) [peptide selected by 3 in vivo phage rounds in dog cardiac muscle]", "values": [
      {"measurement": "FREQUENCY (of selected phage clone among clones sequenced)", "setting": "cardiac muscle [1]", "result": 8, "unit": "%"}
    ]}
  ]
}
